{"source": "patent US11441142B2", "about": "“FLS variant having increased activity” (KONKUK UNIVERSITY INDUSTRIAL COOPERATION CORPORATION, priority 2017, dated 2022)", "molecules": {"B1": {"name": "Clostridium autoethanogenum BDH (2,3-butanediol dehydrogenase), wild type, SEQ ID NO: 14 (Clostridium autoethanogenum DSM 10061) (protein)", "chain": "MKGFAMLGINKLGWIEKKNPVPGPYDAIVHPLAVSPCTSDIHTVFEGALGNRENMILGHEAVGEIAEVGSEVKDFKVGDRVIVPCTTPDWRSLEVQAGFQQHSNGMLAGWKFSNFKDGVFADYFHVNDADMNLAILPDEIPLESAVMMTDMMTTGFHGAELADIKMGSSVVVIGIGAVGLMGIAGSKLRGAGRIIGVGSRPVCVETAKFYGATDIVNYKNGDIVEQIMDLTHGKGVDRVIMAGGGAETLAQAVTMVKPGGVISNINYHGSGDTLPIPRVQWGCGMAHKTIRGGLCPGGRLRMEMLRDLVLYKRVDLSKLVTHVFDGAENIEKALLLMKNKPKDLIKSVVTF"}, "B2": {"name": "Clostridium autoethanogenum BDH (2,3-butanediol dehydrogenase) variant BDH:S199A, SEQ ID NO: 16 (Clostridium autoethanogenum DSM 10061; S199A) (protein)", "chain": "MKGFAMLGINKLGWIEKKNPVPGPYDAIVHPLAVSPCTSDIHTVFEGALGNRENMILGHEAVGEIAEVGSEVKDFKVGDRVIVPCTTPDWRSLEVQAGFQQHSNGMLAGWKFSNFKDGVFADYFHVNDADMNLAILPDEIPLESAVMMTDMMTTGFHGAELADIKMGSSVVVIGIGAVGLMGIAGSKLRGAGRIIGVGARPVCVETAKFYGATDIVNYKNGDIVEQIMDLTHGKGVDRVIMAGGGAETLAQAVTMVKPGGVISNINYHGSGDTLPIPRVQWGCGMAHKTIRGGLCPGGRLRMEMLRDLVLYKRVDLSKLVTHVFDGAENIEKALLLMKNKPKDLIKSVVTF"}}, "key": {"[1]": {"tested_on": "Lactobacillus brevis DDH (diol dehydratase), wild type, SEQ ID NO: 18", "settings": "substrate 2,3-butanediol, coenzyme B12; cited from earlier work"}, "[2]": {"molecular_target": "T1, Clostridium autoethanogenum BDH (2,3-butanediol dehydrogenase), wild type, SEQ ID NO: 14 (Clostridium autoethanogenum, UniProt A0ABM5NRF0)", "T1 sequence (A0ABM5NRF0 1-351)": "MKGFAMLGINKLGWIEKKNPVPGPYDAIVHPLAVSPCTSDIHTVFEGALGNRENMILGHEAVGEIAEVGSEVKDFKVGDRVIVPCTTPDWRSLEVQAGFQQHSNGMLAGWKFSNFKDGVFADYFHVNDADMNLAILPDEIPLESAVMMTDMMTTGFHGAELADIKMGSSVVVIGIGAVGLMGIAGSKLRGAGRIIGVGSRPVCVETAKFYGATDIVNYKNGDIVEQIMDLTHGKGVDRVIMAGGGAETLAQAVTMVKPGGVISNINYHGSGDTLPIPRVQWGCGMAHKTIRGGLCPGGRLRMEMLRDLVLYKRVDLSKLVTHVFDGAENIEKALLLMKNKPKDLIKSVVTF", "assay": "kinetic parameters of BDH", "type": "biochemical", "settings": "coenzyme NADH, pH 7.5, room temperature"}, "[3]": {"molecular_target": "T2, Clostridium autoethanogenum BDH (2,3-butanediol dehydrogenase) variant BDH:S199A, SEQ ID NO: 16 (Clostridium autoethanogenum, UniProt A0ABM5NRF0, S199A)", "T2 sequence (A0ABM5NRF0 1-351 S199A)": "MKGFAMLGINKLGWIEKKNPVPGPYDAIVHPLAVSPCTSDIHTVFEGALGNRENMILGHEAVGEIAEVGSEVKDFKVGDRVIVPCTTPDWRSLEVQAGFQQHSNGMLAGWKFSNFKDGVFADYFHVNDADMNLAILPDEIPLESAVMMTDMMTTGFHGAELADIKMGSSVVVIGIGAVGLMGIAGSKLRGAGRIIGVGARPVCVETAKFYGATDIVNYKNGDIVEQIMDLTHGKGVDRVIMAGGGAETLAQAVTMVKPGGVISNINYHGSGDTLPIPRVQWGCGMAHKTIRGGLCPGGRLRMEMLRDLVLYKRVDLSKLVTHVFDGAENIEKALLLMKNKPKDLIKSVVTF", "assay": "kinetic parameters of BDH:S199A", "type": "biochemical", "settings": "for kcat / kcat/Km: pH 7.5, room temperature", "method": "(§1) The kinetic parameters of EtDH and EtDH:D46G were identified by reacting the EtDH and EtDH:D46G with a reaction mixture containing 100 mM glycine-NaOH buffer solution (pH 9.5), 5 mM Mg^2+, 3 mM NAD^+/NADP^+ and 0.5 to 100 mM ethanol at room temperature. The kinetic parameters of FLS and variants thereof were identified by reacting FLS and variants thereof with a reaction mixture containing 100 mM phosphate buffer solution (pH 8.0), 1 mM Mg^+, 0.1 mM TPP and 0.5 to 20 mM acetaldehyde at room temperature. The kinetic parameters of BDH and BDH:S199A were identified by reacting BDH and BDH:S199A with a reaction mixture containing 50 mM Tris-HCl buffer solution (pH 7.5), 0.2 mM NADPH, 1 mM DTT; 0.5 to 100 mM acetoin or 0.5 to 10 mM butanone at room temperature. The Km and kcat values were identified using nonlinear regression fitting of the Michaelis-Menten equation and the fitting were repeated three times.\n(§2) In order to compare the catalytic efficiencies via measurement of kinetic parameters of cascade enzymes and variants thereof in accordance with the present disclosure, the following experiment was performed. Specifically, the kinetic parameters of EtDH and EtDH:D46G were identified by reacting EtDH and EtDH:D46G with a reaction mixture containing 100 mM glycine-NaOH buffer solution (pH 9.5), 5 mM Mg^2+, 3 mM NAD^+/NADP^+ and 0.5 to 100 mM ethanol at room temperature. The kinetic parameters of FLS and variants thereof were identified by reacting FLS and variants thereof with a reaction mixture containing 100 mM phosphate buffer solution (pH 8.0), 1 mM Mg^+, 0.1 mM TPP and 0.5 to 20 mM acetaldehyde at room temperature. The kinetic parameters of BDH and BDH:S199A were identified by reacting BDH and BDH:S199A with a reaction mixture containing 50 mM Tris-HCl buffer solution (pH 7.5), 0.2 mM NADPH, 1 mM DTT; and 0.5 to 100 mM acetoin or 0.5 to 10 mM butanone at room temperature. Km and kcat values as substrate affinity were identified using nonlinear regression fitting of the Michaelis-Menten equation and the fitting were repeated three times. The test results of DDH and NOX were compared with previous results [(S. Kwak, et al., Bioresource Technol., 2013, 135, 432), and (M. Kopke, et al., Appl. Environ. Microbiol., 2014, 80, 3394)]."}, "[4]": {"tested_on": "Cupriavidus necator EtDH (ethanol dehydrogenase) variant EtDH:D46G, SEQ ID NO: 6", "settings": "pH 9.5, room temperature", "method": "as §1, §2"}, "[5]": {"tested_on": "Cupriavidus necator EtDH (ethanol dehydrogenase), wild type, SEQ ID NO: 4", "settings": "substrate ethanol, pH 9.5, room temperature", "method": "as §1, §2"}, "[6]": {"tested_on": "Lactobacillus rhamnosus NOX (NADH oxidase), SEQ ID NO: 2", "settings": "substrate O2, coenzyme NADH; cited from earlier work"}, "[7]": {"substrate": "CC(=O)C(C)O", "assay": "kinetic parameters of BDH", "type": "biochemical, Clostridium autoethanogenum", "settings": "other: substrate acetoin, coenzyme NADPH (0.2 mM), pH 7.5, room temperature"}, "[8]": {"substrate": "CCC(C)=O", "assay": "kinetic parameters of BDH", "type": "biochemical, Clostridium autoethanogenum", "settings": "other: substrate butanone, coenzyme NADPH (0.2 mM), pH 7.5, room temperature"}, "[9]": {"substrate": "CCC(C)=O", "assay": "kinetic parameters of BDH:S199A", "type": "biochemical, Clostridium autoethanogenum", "settings": "other: substrate butanone, coenzyme NADPH (0.2 mM), pH 7.5, room temperature"}, "[10]": {"settings": "substrate acetoin, coenzyme NADH"}, "[11]": {"settings": "substrate acetoin, coenzyme NADPH (0.2 mM)"}, "[12]": {"settings": "substrate butanone, coenzyme NADH"}, "[13]": {"settings": "second line of EtDH:D46G, coenzyme printed NAD^+"}, "[14]": {"settings": "substrate ethanol, coenzyme NAD^+ (3 mM)"}}, "note": "Read-outs that look alike come from different tables or passages of the source.", "data": [{"molecule": "C[C@H](O)[C@@H](C)O", "note": "[2,3-butanediol]", "values": [{"measurement": "Km", "setting": "[1]", "value": 10400, "unit": "µM"}, {"measurement": "kcat", "setting": "[1]", "value": 35, "unit": "s⁻¹"}, {"measurement": "kcat/Km", "setting": "[1]", "value": 3400, "unit": "M⁻¹ s⁻¹"}]}, {"molecule": "CC(=O)C(C)O", "note": "(stereo not shown) [Acetoin]", "values": [{"measurement": "kcat", "setting": "[2]; substrate acetoin", "value": 0, "unit": "s⁻¹"}, {"measurement": "kcat/Km", "setting": "[2]; substrate acetoin", "value": 0, "unit": "M⁻¹ s⁻¹"}, {"measurement": "kcat", "setting": "[3]; [10]", "value": 0, "unit": "s⁻¹"}, {"measurement": "kcat/Km", "setting": "[3]; [10]", "value": 0, "unit": "M⁻¹ s⁻¹"}, {"measurement": "kcat", "setting": "[3]; [11]", "value": "224.3 ± 9.72", "unit": "s⁻¹"}, {"measurement": "kcat/Km", "setting": "[3]; [11]", "value": 19310, "unit": "M⁻¹ s⁻¹"}]}, {"molecule": "CCC(C)=O", "note": "[Butanone]", "values": [{"measurement": "kcat", "setting": "[2]; substrate butanone", "value": 0, "unit": "s⁻¹"}, {"measurement": "kcat/Km", "setting": "[2]; substrate butanone", "value": 0, "unit": "M⁻¹ s⁻¹"}, {"measurement": "kcat", "setting": "[3]; [12]", "value": 0, "unit": "s⁻¹"}, {"measurement": "kcat/Km", "setting": "[3]; [12]", "value": 0, "unit": "M⁻¹ s⁻¹"}, {"measurement": "catalytic efficiency compared to wild-type BDH", "setting": "[3]; substrate butanone, coenzyme NADPH", "value": "increases catalytic efficiency"}]}, {"molecule": "CCO", "note": "[Ethanol]", "values": [{"measurement": "Km", "setting": "[4]; [13]", "value": "600 ± 20", "unit": "µM"}, {"measurement": "kcat", "setting": "[4]; [13]", "value": "0.99 ± 0.03", "unit": "s⁻¹"}, {"measurement": "kcat/Km", "setting": "[4]; [13]", "value": 1650, "unit": "M⁻¹ s⁻¹"}, {"measurement": "Km", "setting": "[4]; [14]", "value": "570 ± 30", "unit": "µM"}, {"measurement": "kcat", "setting": "[4]; [14]", "value": "5.85 ± 0.08", "unit": "s⁻¹"}, {"measurement": "kcat/Km", "setting": "[4]; [14]", "value": 9970, "unit": "M⁻¹ s⁻¹"}, {"measurement": "kcat", "setting": "[5]; coenzyme NADP^+ (3 mM)", "value": 0, "unit": "s⁻¹"}, {"measurement": "kcat/Km", "setting": "[5]; coenzyme NADP^+ (3 mM)", "value": 0, "unit": "M⁻¹ s⁻¹"}, {"measurement": "Km", "setting": "[5]; coenzyme NAD^+ (3 mM)", "value": "370 ± 50", "unit": "µM"}, {"measurement": "kcat", "setting": "[5]; coenzyme NAD^+ (3 mM)", "value": "6.28 ± 0.11", "unit": "s⁻¹"}, {"measurement": "kcat/Km", "setting": "[5]; coenzyme NAD^+ (3 mM)", "value": 17090, "unit": "M⁻¹ s⁻¹"}]}, {"molecule": "O=O", "note": "[O2]", "values": [{"measurement": "kcat", "setting": "[6]", "value": 218.7, "unit": "s⁻¹"}, {"measurement": "kcat/Km", "setting": "[6]", "value": "3.77e+07", "unit": "M⁻¹ s⁻¹"}]}, {"molecule": "B1", "values": [{"measurement": "Km", "setting": "[7]", "value": "84560 ± 7960", "unit": "µM"}, {"measurement": "Km", "setting": "[8]", "value": "1940 ± 50", "unit": "µM"}, {"measurement": "kcat", "setting": "[8]", "value": "29.9 ± 1.02", "unit": "s⁻¹"}, {"measurement": "kcat/Km", "setting": "[8]", "value": 15400, "unit": "M⁻¹ s⁻¹"}]}, {"molecule": "B2", "values": [{"measurement": "Km", "setting": "[9]", "value": "1080 ± 90", "unit": "µM"}, {"measurement": "kcat", "setting": "[9]", "value": "40.8 ± 1.42", "unit": "s⁻¹"}, {"measurement": "kcat/Km", "setting": "[9]", "value": 37800, "unit": "M⁻¹ s⁻¹"}]}]}
